Measured values from patent US10159640B2, “Prebiotic oral care compositions containing amino acids” (COLGATE-PALMOLIVE COMPANY, priority 2013, dated 2018).

Tests used:
Experiment in all cases: Extent of growth, growth curves in BHI
Assay type in all cases: cell-based
Conditions in all cases: control = 1
[1] = test system: Actinomyces naeslundii
Procedure: (§1) The extent of growth of the tested bacteria in response to selected compounds (Met-Pro, Phe-Glu) was investigated by setting up growth curves in a nutritionally rich medium (brain heart infusion broth (BHI), Oxoid), over 48 hours. Late exponential growth phase liquid cultures were prepared by transferring the respective bacterium from blood agar plates to BHI and overnight incubation at 37° C. in an anaerobic atmosphere for A. viscosus, V. parvula, F. nucleatum, P. gingivalis, P. intermedia, T. forsythia, A. naeslundii, and C. sputigena, and in a 5% CO2 environment for S. salivarius, S. sanguinis, S. mitis, A. actinomycetemcomitans, S. mutans, S. sobrinus and S. gordonii. Overnight cultures were transferred to BHI and adjusted to a concentration of 1×10^7 CFU/ml (colony forming units per ml) by measuring the optical density at 600 nm (OD600) (BioRad SmartSpec 3000). For each strain, 200 μl of the bacterial suspension was added to a 96-well plate containing 20 μl of the respective di-peptides. Final concentrations of the di-peptides were set to 5, 10, 20 and 25 μmol/ml. […] Plates were incubated as previously described.
(§2) For each combination of bacterium/dipeptide, and for each of their respective controls (i.e. the particular bacterium in the nutritionally rich medium with no dipeptide), the optical density was measured at 630 nm (OD630) at 0 h, 24 h and 48 h (Thermo Scientific Multiskan Ascent). Additionally, the OD630 for combinations of bacterium/dipeptide grown in a 5% CO2 environment were also measured every hour between 0 h and 9 h.
(§3) The experiment was carried out on three different days (thus providing 3 biological replicas) and on each day the experiment was carried out in quadruple (thus providing 4 technical replicas) for each combination of bacterium with dipeptide and for each control. For each day and for each combination, the average (mean) of the values obtained (as detailed above) for the four technical replicas was calculated to provide a single value for each combination on each day. The values shown in Tables 5 to 6, below, are the average (mean) of the three single values obtained for each combination of bacterium with dipeptide.

[2] = test system: Actinomyces viscosus
Procedure: as §1, §2, §3

[3] = test system: Aggregatibacter actinomycetemcomitans
Procedure: as §1, §2, §3

[4] = test system: Capnocytophaga sputigena
Procedure: as §1, §2, §3

[5] = test system: Fusobacterium nucleatum
Procedure: as §1, §2, §3

[6] = test system: Porphyromonas gingivalis
Procedure: as §1, §2, §3

[7] = test system: Streptococcus gordonii
Procedure: as §1, §2, §3

[8] = test system: Streptococcus mitis
Procedure: as §1, §2, §3

[9] = test system: Streptococcus mutans
Procedure: as §1, §2, §3

[10] = test system: Streptococcus salivarius
Procedure: as §1, §2, §3

[11] = test system: Streptococcus sobrinus
Procedure: as §1, §2, §3

[12] = test system: Tannerella forsythia
Procedure: as §1, §2, §3

[13] = test system: Veillonella parvula
Procedure: as §1, §2, §3

## Phe-Glu
[1]; 5 μmol/ml
  extent of growth: maximal OD630 over 48 hr divided by maximal OD of control: 0.7791
[1]; 10 μmol/ml
  extent of growth: maximal OD630 over 48 hr divided by maximal OD of control: 0.4962
[1]; 20 μmol/ml
  extent of growth: maximal OD630 over 48 hr divided by maximal OD of control: 0.1648
[1]; 25 μmol/ml
  extent of growth: maximal OD630 over 48 hr divided by maximal OD of control: 0.1653
[2]; 5 μmol/ml
  extent of growth: maximal OD630 over 48 hr divided by maximal OD of control: 0.5112
[2]; 10 μmol/ml
  extent of growth: maximal OD630 over 48 hr divided by maximal OD of control: 0.3845
[2]; 20 μmol/ml
  extent of growth: maximal OD630 over 48 hr divided by maximal OD of control: 0.1598
[2]; 25 μmol/ml
  extent of growth: maximal OD630 over 48 hr divided by maximal OD of control: 0.1563
[3]; 5 μmol/ml
  extent of growth: maximal OD630 over 48 hr divided by maximal OD of control: 0.5643
[3]; 10 μmol/ml
  extent of growth: maximal OD630 over 48 hr divided by maximal OD of control: 0.3227
[3]; 20 μmol/ml
  extent of growth: maximal OD630 over 48 hr divided by maximal OD of control: 0.2201
[3]; 25 μmol/ml
  extent of growth: maximal OD630 over 48 hr divided by maximal OD of control: 0.2320
[4]; 5 μmol/ml
  extent of growth: maximal OD630 over 48 hr divided by maximal OD of control: 0.9921
[4]; 10 μmol/ml
  extent of growth: maximal OD630 over 48 hr divided by maximal OD of control: 0.9872
[4]; 20 μmol/ml
  extent of growth: maximal OD630 over 48 hr divided by maximal OD of control: 1.0801
[4]; 25 μmol/ml
  extent of growth: maximal OD630 over 48 hr divided by maximal OD of control: 1.1804
[5]; 5 μmol/ml
  extent of growth: maximal OD630 over 48 hr divided by maximal OD of control: 0.7990
[5]; 10 μmol/ml
  extent of growth: maximal OD630 over 48 hr divided by maximal OD of control: 0.8493
[5]; 20 μmol/ml
  extent of growth: maximal OD630 over 48 hr divided by maximal OD of control: 0.2311
[5]; 25 μmol/ml
  extent of growth: maximal OD630 over 48 hr divided by maximal OD of control: 0.2402
[6]; 5 μmol/ml
  extent of growth: maximal OD630 over 48 hr divided by maximal OD of control: 0.8526
[6]; 10 μmol/ml
  extent of growth: maximal OD630 over 48 hr divided by maximal OD of control: 0.9810
[6]; 20 μmol/ml
  extent of growth: maximal OD630 over 48 hr divided by maximal OD of control: 0.4181
[6]; 25 μmol/ml
  extent of growth: maximal OD630 over 48 hr divided by maximal OD of control: 0.4208
[7]; 5 μmol/ml
  extent of growth: maximal OD630 over 48 hr divided by maximal OD of control: 0.9682
[7]; 10 μmol/ml
  extent of growth: maximal OD630 over 48 hr divided by maximal OD of control: 0.8613
[7]; 20 μmol/ml
  extent of growth: maximal OD630 over 48 hr divided by maximal OD of control: 0.3992
[7]; 25 μmol/ml
  extent of growth: maximal OD630 over 48 hr divided by maximal OD of control: 0.2908
[8]; 5 μmol/ml
  extent of growth: maximal OD630 over 48 hr divided by maximal OD of control: 1.9957
[8]; 10 μmol/ml
  extent of growth: maximal OD630 over 48 hr divided by maximal OD of control: 2.0642
[8]; 20 μmol/ml
  extent of growth: maximal OD630 over 48 hr divided by maximal OD of control: 0.3250
[8]; 25 μmol/ml
  extent of growth: maximal OD630 over 48 hr divided by maximal OD of control: 0.4367
[9]; 5 μmol/ml
  extent of growth: maximal OD630 over 48 hr divided by maximal OD of control: 0.9703
[9]; 10 μmol/ml
  extent of growth: maximal OD630 over 48 hr divided by maximal OD of control: 0.9003
[9]; 20 μmol/ml
  extent of growth: maximal OD630 over 48 hr divided by maximal OD of control: 0.4212
[9]; 25 μmol/ml
  extent of growth: maximal OD630 over 48 hr divided by maximal OD of control: 0.2492
[10]; 5 μmol/ml
  extent of growth: maximal OD630 over 48 hr divided by maximal OD of control: 0.9916
[10]; 10 μmol/ml
  extent of growth: maximal OD630 over 48 hr divided by maximal OD of control: 0.8123
[10]; 20 μmol/ml
  extent of growth: maximal OD630 over 48 hr divided by maximal OD of control: 0.2953
[10]; 25 μmol/ml
  extent of growth: maximal OD630 over 48 hr divided by maximal OD of control: 0.2322
[11]; 5 μmol/ml
  extent of growth: maximal OD630 over 48 hr divided by maximal OD of control: 1.0790
[11]; 10 μmol/ml
  extent of growth: maximal OD630 over 48 hr divided by maximal OD of control: 0.9900
[11]; 20 μmol/ml
  extent of growth: maximal OD630 over 48 hr divided by maximal OD of control: 0.5832
[11]; 25 μmol/ml
  extent of growth: maximal OD630 over 48 hr divided by maximal OD of control: 0.4315
[12]; 5 μmol/ml
  extent of growth: maximal OD630 over 48 hr divided by maximal OD of control: 1.0118
[12]; 10 μmol/ml
  extent of growth: maximal OD630 over 48 hr divided by maximal OD of control: 0.7490
[12]; 20 μmol/ml
  extent of growth: maximal OD630 over 48 hr divided by maximal OD of control: 0.7707
[12]; 25 μmol/ml
  extent of growth: maximal OD630 over 48 hr divided by maximal OD of control: 0.8302
[13]; 5 μmol/ml
  extent of growth: maximal OD630 over 48 hr divided by maximal OD of control: 1.0286
[13]; 10 μmol/ml
  extent of growth: maximal OD630 over 48 hr divided by maximal OD of control: 1.0199
[13]; 20 μmol/ml
  extent of growth: maximal OD630 over 48 hr divided by maximal OD of control: 0.9533
[13]; 25 μmol/ml
  extent of growth: maximal OD630 over 48 hr divided by maximal OD of control: 1.0475
